Experimental data: US20230131630A1, “METHOD OF SCREENING FOR A SUBSTANCE THAT ACTS ON A CELL MASS” (LSI MEDIENCE CORPORATION, priority 2017, published 2023)

What was measured:
[1] = test system: cell mass of primary cancer cells from PDX tumor of pancreatic cancer (1); assay: In vitro anticancer drug sensitivity test, ATP assay (CellTiter-Glo 3D) on three-dimensionally cultured cell mass; assay type: cell-based, human; conditions: fresh tumor; gemcitabine 0.001-10 µmol/L from Day 7, ATP assay on Day 14; FIG. 8 right
Procedure: A half of medium exchange was performed with a culture medium supplemented with gemcitabine on Day 7. A half of medium exchange was performed with a culture medium supplemented with gemcitabine which was adjusted to maintain the final concentration on Days 10 and 12. On Day 14, ATP assay was performed, and the proportion based on the result of each gemcitabine concentration group was calculated when the result at a gemcitabine concentration of 0 µmol / L was defined as a cell viability of 100%, thereby creating a cell viability curve. An in vitro anticancer drug sensitivity test was performed by the following procedures. After dispersion treatment, the necessary amount of cells counted were collected in a 15-mL tube, and the supernatant was removed by centrifugation at 300 × g for 5 min. Thereafter, a cell suspension was prepared so that the cell count was 5 × 10^4 cells/mL using a medium prepared by adding Corning Matrigel GFR (Corning Incorporated) to StemPro hESC SFM (Thermo Fisher Scientific K.K.) to yield a final concentration of 2% v/v. […] The seeded cell count was 1 × 10^4 cells/200 µL/well, and the day of seeding was determined to be Day 0. […] The proportion of the result of each gemcitabine concentration group was calculated when the result at a gemcitabine concentration of 0 µmol / L was defined as a cell viability of 100%, thereby creating a cell viability curve.

[2] = test system: PDX tumor of pancreatic cancer (1); assay: In vivo anticancer drug sensitivity test, PDX tumor grafted subcutaneously in immunodeficient mice; conditions: super SCID mouse, subcutaneous graft; gemcitabine 60 mg/kg/time twice weekly for 4 weeks; FIG. 8 left
Procedure: An in vivo anticancer drug sensitivity test was performed by the following procedures with reference to a known method. A PDX tumor of pancreatic cancer (1), which was subcutaneously grown in an immunodeficient mouse [super SCID mouse (strain name: C3H/HeJ/NOs-scid; LPS-nonresponder)], was aseptically extracted in a safety cabinet, and every necrotic area of the tumor was removed with surgical scissors. Subsequently, graft tumor fragments each having a size of about 2 to 3 mm square were prepared and subcutaneously grafted in at least 12 immunodeficient mice. When the average tumor volume reached about 200 mm^3, the mice were grouped by tumor volume and assigned to a control group and a gemcitabine administration group (N = 6: 6 mice each under the same conditions). Gemcitabine (60 mg/kg/time) was administered at a dosing frequency of twice weekly for 4 weeks. The tumor diameter was measured at a frequency of twice weekly and the tumor volume was calculated, thereby creating a tumor proliferation curve.

[3] = test system: reproduced cell mass originating from the PDX tumor of pancreatic cancer (1); assay: In vitro gemcitabine sensitivity test, ATP assay on subcultured (reproduced) cell mass; assay type: cell-based, human; conditions: fresh or frozen tumor-derived, gemcitabine 0.001-10 µmol/L from Day 3, ATP assay on Day 7, FIGS. 10-1, 10-2
Procedure: A fresh tumor-derived cell mass and a frozen tumor-derived cell mass were obtained in accordance with Examples 1 and 10, respectively, using a PDX tumor of pancreatic cancer (1) (procured from National Institutes of Biomedical Innovation, Health and Nutrition). Each cell mass was collected in a 50-mL tube, and the supernatant was removed by centrifugation at 300 × g for 5 min. Thereafter, the cell mass was suspended in TrypLE (Thermo Fisher Scientific K.K.) and enzymatically treated in a warm bath at 37° C. The reaction was weakened by adding 10 times the amount of HBSS (Thermo Fisher Scientific K.K.) to the reaction solution. The undispersed residues were removed by passing the mixture through a 100-µm cell strainer. […]
The necessary amount of cells were collected in a 15-mL tube, and the supernatant was removed by centrifugation at 300 × g for 5 min. […] The seeded cell count was 1 × 10^4 cells/200 µL/well (fresh tumor-derived) or 4 × 10^3 cells/200 µL/well (frozen tumor-derived), and the day of seeding was determined to be Day 0. […] The ratio of the result of each measurement day with respect to the result of Day 0 was calculated, and a growth curve was created. The proportion based on the result of each gemcitabine concentration group was calculated when the result at a gemcitabine concentration of 0 µmol/L was defined as a cell viability of 100%, thereby creating a cell viability curve. […]

[4] = test system: cell mass originating from the once-frozen PDX tumor of pancreatic cancer (1); assay: In vitro gemcitabine sensitivity test, ATP assay on cell mass from once-frozen tumor tissue; assay type: cell-based, human; conditions: gemcitabine 0.001-10 µmol/L from Day 3, ATP assay on Day 7, FIG. 9
Procedure: The PDX tumor of pancreatic cancer (1) (procured from National Institutes of Biomedical Innovation, Health and Nutrition) was extracted in accordance with Example 1. The tumor was immersed in CELLBANKER 1 (Takara Bio Inc.) and frozen by a Program Deep Freezer (Nepa Gene Co., Ltd.), thereby preparing a frozen tumor. The frozen tumor was thawed in a warm bath at 37° C. and washed with HBSS (Thermo Fisher Scientific K.K.), and then, primary cancer cells were prepared in accordance with Example 1. After dispersion treatment, the necessary amount of cells counted were collected in a 15-mL tube, and the supernatant was removed by centrifugation at 300 × g for 5 min. […] The seeded cell count was 1 × 10^4 cells/200 µL/well, and the day of seeding was determined to be Day 0. […] The proportion of the result of each measurement day with respect to the result of Day 0 was calculated, and a proliferation curve was created. The proportion based on the result of each gemcitabine concentration group was calculated when the result at a gemcitabine concentration of 0 µmol / L was defined as a cell viability of 100%, thereby creating a cell viability curve.

Nc1ccn([C@@H]2O[C@H](CO)[C@@H](O)C2(F)F)c(=O)n1 [Gemcitabine, gemcitabine]
inhibited proliferation: proliferation / cell viability (ATP assay) of the cell mass [1] | proliferation of the PDX tumor (tumor volume, tumor proliferation curve) [2] | proliferation / cell viability (ATP assay) of the reproduced cell mass [3] | proliferation / cell viability (ATP assay) of the cell mass [4]
